Data: EP3478687B1 (Daewoong Pharmaceutical Co., Ltd., priority 2016, dated 2018)
Counter-ions that a name gives are not always drawn.

Tests used:
[1] = biological target: T1, Recombinant purified human JAK3 (Homo sapiens, UniProt P52333); experiment: JAK3 kinase inhibitory activity, ADP-Glo kinase assay (Promega V9441); assay type: biochemical; details: ATP 5 uM, 4 ng JAK3 per reaction, 1 hour 30 °C, chemiluminescence
T1 construct: purchased Promega V9441
T1 sequence (P52333 1-1124): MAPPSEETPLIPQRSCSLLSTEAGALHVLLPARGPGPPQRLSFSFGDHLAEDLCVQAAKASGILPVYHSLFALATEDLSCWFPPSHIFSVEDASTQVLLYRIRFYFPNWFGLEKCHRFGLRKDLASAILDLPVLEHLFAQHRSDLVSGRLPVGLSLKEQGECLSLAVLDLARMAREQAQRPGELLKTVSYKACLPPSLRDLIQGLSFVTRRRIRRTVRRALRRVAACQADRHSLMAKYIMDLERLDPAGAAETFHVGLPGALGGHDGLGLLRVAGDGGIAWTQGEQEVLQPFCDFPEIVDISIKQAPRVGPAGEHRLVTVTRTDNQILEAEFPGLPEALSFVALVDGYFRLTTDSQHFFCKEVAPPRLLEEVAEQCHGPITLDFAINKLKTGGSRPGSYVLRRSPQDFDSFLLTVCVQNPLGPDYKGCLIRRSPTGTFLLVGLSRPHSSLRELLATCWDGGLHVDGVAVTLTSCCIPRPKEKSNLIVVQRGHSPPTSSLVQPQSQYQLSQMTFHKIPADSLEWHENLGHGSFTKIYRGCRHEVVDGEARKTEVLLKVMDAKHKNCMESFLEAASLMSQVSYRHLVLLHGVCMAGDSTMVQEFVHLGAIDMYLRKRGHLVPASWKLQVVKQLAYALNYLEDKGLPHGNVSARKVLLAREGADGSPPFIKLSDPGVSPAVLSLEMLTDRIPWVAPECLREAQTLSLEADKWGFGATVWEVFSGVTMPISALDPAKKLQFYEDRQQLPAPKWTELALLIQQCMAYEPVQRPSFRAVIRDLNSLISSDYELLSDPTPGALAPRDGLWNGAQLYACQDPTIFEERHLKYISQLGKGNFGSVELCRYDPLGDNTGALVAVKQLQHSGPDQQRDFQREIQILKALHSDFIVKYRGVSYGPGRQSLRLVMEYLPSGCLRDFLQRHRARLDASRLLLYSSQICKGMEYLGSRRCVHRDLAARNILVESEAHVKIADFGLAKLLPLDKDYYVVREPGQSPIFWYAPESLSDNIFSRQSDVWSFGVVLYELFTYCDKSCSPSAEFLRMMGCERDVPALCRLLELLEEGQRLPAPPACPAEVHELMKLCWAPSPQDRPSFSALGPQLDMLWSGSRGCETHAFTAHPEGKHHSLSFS
Procedure, shortened: (§1)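 IC50 values come from ADP-Glo luminescence after 1 h kinase reactions at 30 °C in 1% DMSO on 0.2 µg/µL Poly(Glu4,Tyr1) substrate. ATP was 10 µM for BTK (8 ng, buffer containing MnCl2) and 5 µM for JAK3 (4 ng), in Tris-Cl pH 7.5/MgCl2/BSA/DTT.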

[2] = biological target: T2, Recombinant purified human BTK (Homo sapiens, UniProt Q06187); experiment: BTK kinase inhibitory activity, ADP-Glo kinase assay (Promega V9071); assay type: biochemical; details: ATP 10 uM, 8 ng BTK per reaction, 1 hour 30 °C, chemiluminescence
T2 construct: purchased Promega V9071
T2 sequence (Q06187 whole entry): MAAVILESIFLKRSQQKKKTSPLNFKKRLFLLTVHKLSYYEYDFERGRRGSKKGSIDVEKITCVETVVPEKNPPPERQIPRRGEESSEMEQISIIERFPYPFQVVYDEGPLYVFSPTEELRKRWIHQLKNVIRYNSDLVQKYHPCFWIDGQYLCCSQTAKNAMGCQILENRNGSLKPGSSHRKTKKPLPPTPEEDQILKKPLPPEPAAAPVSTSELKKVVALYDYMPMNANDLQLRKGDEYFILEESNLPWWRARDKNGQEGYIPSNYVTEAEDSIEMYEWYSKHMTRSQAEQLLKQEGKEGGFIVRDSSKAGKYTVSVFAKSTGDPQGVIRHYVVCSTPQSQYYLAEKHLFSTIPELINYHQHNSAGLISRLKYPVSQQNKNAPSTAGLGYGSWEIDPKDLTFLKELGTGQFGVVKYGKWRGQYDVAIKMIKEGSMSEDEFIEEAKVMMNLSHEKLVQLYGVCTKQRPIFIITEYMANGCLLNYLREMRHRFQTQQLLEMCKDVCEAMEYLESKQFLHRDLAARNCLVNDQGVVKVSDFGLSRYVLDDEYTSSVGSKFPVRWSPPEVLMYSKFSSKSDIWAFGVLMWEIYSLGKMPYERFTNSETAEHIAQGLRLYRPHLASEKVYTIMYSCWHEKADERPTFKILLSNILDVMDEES
Procedure, shortened: as §1

SMILES | IC50 [1] [nM] | IC50 [2] [nM]
CCn1cc(Nc2nc(O[C@@H]3CCCN(C(=O)/C(C#N)=C/C4CC4)C3)c3c(Cl)n[nH]c3n2)cn1 [Example 155, (R,E)-2-(3-((3-chloro-6-((1-ethyl-1H-pyrazol-4-yl)amino)-1H-pyrazolo[3,4-d]pyrimidin-4-yl)oxy)piperidine-1-carbonyl)-3-cyclopropylacrylonitrile] | 53.7 | 2.2
C=CC(=O)N1CCC[C@@H](Nc2nc(Nc3cnoc3)nc3[nH]nc(Cl)c23)C1 [Example 59, (R)-1-(3-(3-chloro-6-(isoxazol-4-ylamino)-1H-pyrazolo[3,4-d]pyrimidin-4-ylamino)piperidin-1-yl)prop-2-en-1-one] | 1.4 | 1.8
C/C=C/C(=O)N1CCC[C@@H](Nc2nc(Nc3ccc(N4CCN(C)CC4)cc3)nc3[nH]cc(Cl)c23)C1 [Example 140, (R,E)-1-(3-((5-chloro-2-((4-(4-methylpiperazin-1-yl)phenyl)amino)-7H-pyrrolo [2,3-d]pyrimidin-4-yl)amino)piperidin-1-yl)but-2-en-1-one] | > 80 | 986
C=CC(=O)N1CCC[C@@H](Nc2nc(Nc3cnn(CC)c3)nc3[nH]ccc23)C1 [Example 21, (R)-1-(3-(2-(1-ethyl-1H-pyrazol-4-ylamino)-7H-pyrrolo[2,3-d]pyrimidin-4-ylamino)piperidin-1-yl)prop-2-en-1-one] | 0.4 | 4.5
C=CC(=O)N1CCC[C@@H](Nc2nc(Nc3cnn(C4CC4)c3)nc3[nH]cc(C)c23)C1 [Example 78, (R)-1-(3-((2-((1-cyclopropyl-1H-pyrazol-4-yl)amino)-5-methyl-7H-pyrrolo[2,3-d]pyrimidin-4-yl)amino)piperidin-1-yl)prop-2-en-1-one] | 0.7 | 11.5
C=CC(=O)N1CCC[C@@H](Nc2nc(Nc3cnn(C(C)(C)C)c3)nc3[nH]ncc23)C1 [Example 66, (R)-1-(3-((6-((1-(tert-butyl)-1H-pyrazol-4-yl)amino)-1H-pyrazolo [3,4-d]pyrimidin-4-yl)amino)piperidin-1-yl)prop-2-en-1-one] | 3.7 | 1.7
CCn1cc(Nc2nc(N[C@@H]3CCCN(C(=O)/C(C#N)=C/C(C)C)C3)c3cc[nH]c3n2)cn1 [Example 172, (R,E)-2-(3-((2-((1-ethyl-1H-pyrazol-4-yl)amino)-7H-pyrrolo[2,3-d]pyrimidin-4-yl)amino)piperidine-1-carbonyl)-4-methylpent-2-enenitrile] | 0.9 | 1.6
C=CC(=O)N1CCC[C@@H](Nc2nc(Nc3cnn(C4CC4)c3)nc3[nH]nc(Cl)c23)C1 [Example 49, (R)-1-(3-(3-chloro-6-(1-cyclopropyl-lH-pyrazol-4-ylamino)-1H-pyrazolo [3,4-d]pyrimidin-4-ylamino)piperidin-1-yl)prop-2-en-1-one] | 0.7 | 0.9
C=CC(=O)N1CCC[C@@H](Nc2nc(Nc3cnoc3C)nc3[nH]nc(Cl)c23)C1 [Example 117] | > 400 | 81.2
C=CC(=O)N1CCC[C@@H](Nc2nc(Nc3cnn(C4CCOCC4)c3)nc3[nH]nc(Cl)c23)C1 [Example 48, (R)-1-(3-(3-chloro-6-(1-(tetrahydro-2H-pyran-4-yl)-1H-pyrazol-4-ylamino)-1H-pyrazolo[3,4-d]pyrimidin-4-ylamino)piperidin-1-yl)prop-2-en-1-one] | 0.4 | 0.9
C=CC(=O)N1CCC[C@@H](Oc2nc(Nc3cnn(CC(F)F)c3)nc3[nH]cc(C#N)c23)C1 [Example 149, (R)-4-((1-acryloylpiperidin-3-yl)oxy)-2-((1-(2,2-difluoroethyl)-1H-pyrazol-4-yl)amino)-7H-pyrrolo[2,3-d]pyrimidine-5-carbonitrile] | 0.2 | 1.6
CC(C)/C=C(\C#N)C(=O)N1CCC[C@@H](Oc2nc(Nc3cnn(C4CC4)c3)nc3[nH]nc(Cl)c23)C1 [Example 158, (R,E)-2-(3-((3-chloro-6-((1-cyclopropyl-1H-pyrazol-4-yl)amino)-1H-pyrazolo[3,4-d]pyrimidin-4-yl)oxy)piperidine-1-carbonyl)-4-methylpent-2-enenitrile] | 2.9 | 1.2
C=CC(=O)N1CCC[C@@H](N(C)c2nc(Nc3cnn(CC)c3)nc3[nH]ccc23)C1 [Example 101, (R)-1-(3-((2-((1-ethyl-1H-pyrazol-4-yl)amino)-7H-pyrrolo[2,3-d]pyrimidin-4-yl)(methyl)amino)piperidin-1-yl)prop-2-en-1-one] | 1.8 | 7.4
C=CC(=O)N1CCC[C@@H](Nc2nc(Nc3cnn(CC)c3)nc3[nH]cc(C)c23)C1 [Example 79, (R)-1-(3-((2-((1-ethyl-1H-pyrazol-4-yl)amino)-5-methyl-7H-pyrrolo[2,3-d]pyrimidin-4-yl)amino)piperidin-1-yl)prop-2-en-1-one] | 0.4 | 9.2
C=CC(=O)N1CC[C@@H](C)[C@@H](Nc2nc(Nc3cnn(CC)c3)nc3[nH]ncc23)C1 [Example 106, 1-((3R,4R)-3-((6-((1-ethyl-1H-pyrazol-4-yl)amino)-1H-pyrazolo [3,4-d]pyrimidin-4-yl)amino)-4-methylpiperidin-1-yl)prop-2-en-1-one] | 54.8 | 1.8
C=CC(=O)N1CCC[C@@H](Nc2nc(Nc3cnn(CC(C)C)c3)nc3[nH]ncc23)C1 [Example 65, (R)-1-(3-((6-((1-isobutyl-1H-pyrazol-4-yl)amino)-1H-pyrazolo[3,4-d]pyrimidin-4-yl)amino)piperidin-1-yl)prop-2-en-1-one] | 5.5 | 1.7
C=CC(=O)N1CCC[C@@H](Nc2nc(Nc3cnn(CC)c3)nc3[nH]nc(Cl)c23)C1 [Example 91, (R)-1-(3-((3-chloro-6-((1-ethyl-1H-pyrazol-4-yl)amino)-1H-pyrazolo[3,4-d]pyrimidin-4-yl)amino)piperidin-1-yl)prop-2-en-1-one hydrochloride] | 1.1 | 1.1
C=CC(=O)N1CCC[C@@H](Nc2nc(Nc3cnn(C4CC4)c3)nc3[nH]cc(C#N)c23)C1 [Example 89, (R)-4-((1-acryloylpiperidin-3-yl)amino)-2-((1-cyclopropyl-1H-pyrazol-4-yl)amino)-7H-pyrrolo[2,3-d]pyrimidine-5-carbonitrile] | 0.138 | 0.864
CCn1cc(Nc2nc(S[C@@H]3CCCN(C(=O)/C(C#N)=C/C(C)C)C3)c3cc[nH]c3n2)cn1 [Example 174, (R,E)-2-(3-((2-((1-ethyl-1H-pyrazol-4-yl)amino)-7H-pyrrolo[2,3-d]pyrimidin-4-yl)thio)piperidine-1-carbonyl)-4-methylpent-2-enenitrile] | 0.7 | 2
C=CC(=O)N1CCC[C@@H](Nc2nc(Nc3cccnc3)nc3[nH]cc(Cl)c23)C1 [Example 137, (R)-1-(3-((5-chloro-2-(pyridin-3-ylamino)-7H-pyrrolo[2,3-d]pyrimidin-4-yl)amino)piperidin-1-yl)prop-2-en-1-one] | 2.6 | 19.6
C=CC(=O)N1CCC[C@@H](N(C)c2nc(Nc3cnn(CC(F)F)c3)nc3[nH]ccc23)C1 [Example 103, (R)-1-(3-((2-((1-(2,2-difluoroethyl)-1H-pyrazol-4-yl)amino)-7H-pyrrolo[2,3-d]pyrimidin-4-yl)(methyl)amino)piperidin-1-yl)prop-2-en-1-one] | 1.3 | 21
